Read-outs that look alike come from different tables or passages of the source.
How the values were obtained:
CDK-2 = CDK-2 (Homo sapiens, UniProt P24941); test: CDK-2 enzyme activity inhibition (33P-ATP filter plate kinase assay); format: biochemical
Source text: [General Procedure for Measurement of CDK-2 Enzyme Activity Inhibition]

MAPKAP-K2 = MAPKAP-K2 (Homo sapiens, UniProt P49137); test: MAPKAP-K2 enzyme activity inhibition (33P-ATP filter plate kinase assay); format: biochemical; conditions: MAPKAP-K2 inhibitory activity; assays conducted at typically 1-100 μM; further: key: +: active; ++: more active; +++: very active
MAPKAP-K2, sequence (P49137 whole entry): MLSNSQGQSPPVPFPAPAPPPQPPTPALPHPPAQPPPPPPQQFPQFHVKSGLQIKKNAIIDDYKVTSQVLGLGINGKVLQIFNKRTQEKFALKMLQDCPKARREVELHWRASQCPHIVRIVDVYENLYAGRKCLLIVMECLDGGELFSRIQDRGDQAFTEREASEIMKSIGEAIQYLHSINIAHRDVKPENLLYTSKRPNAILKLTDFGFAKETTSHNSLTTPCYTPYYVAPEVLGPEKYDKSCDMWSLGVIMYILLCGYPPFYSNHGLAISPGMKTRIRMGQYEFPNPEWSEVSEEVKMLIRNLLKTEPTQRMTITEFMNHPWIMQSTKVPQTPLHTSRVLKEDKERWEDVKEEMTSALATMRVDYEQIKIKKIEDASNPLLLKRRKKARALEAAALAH

[1] = read-out: CDK-2 inhibition IC50

| SMILES | IC50 (CDK-2; [1]) | melting point | activity (efficacy against MAPKAP-K2) (MAPKAP-K2) | IC50 (CDK-2) |
| --- | --- | --- | --- | --- |
| Cc1nn2c(Nc3ccc(F)c(Cl)c3)cc(N[C@H]3CC[C@H](N)CC3)nc2c1Br [Compound 6] | < 100 µM | 224 to 226 °C (dec.) |  |  |
| CCc1c(N[C@H]2CC[C@H](N)CC2)nc2ccnn2c1NCc1ccccc1Cl [Compound 38] | < 100 µM | 63 to 65 °C | ++ |  |
| C=C(C)CNc1c(CC)c(N[C@H]2CC[C@H](N)CC2)nc2ccnn12 [Compound 46] | < 100 µM | 91 to 93 °C | ++ |  |
| N[C@H]1CC[C@H](Nc2cc(Nc3ccc(F)c(Cl)c3)n3ncc(I)c3n2)CC1 [Compound 49] | < 100 µM | 153 to 155 °C | ++ |  |
| CCCCOc1ccc(Nc2c(CCCO)c(N[C@H]3CC[C@H](N)CC3)nc3ccnn23)cc1 [Compound 53] | < 100 µM | 116 to 118 °C | +++ |  |
| CCc1c(N[C@H]2CC[C@H](N)CC2)nc2ccnn2c1Nc1ccc(OC)c(Cl)c1 [Compound 55] | < 100 µM | 189 to 192 °C | +++ |  |
| CCCCOc1ccc(Nc2c(CC)c(N[C@H]3CC[C@H](N)CC3)nc3ccnn23)cc1 [Compound 56] | < 100 µM | 144 to 148 °C | +++ |  |
| CCc1c(N[C@H]2CC[C@H](N)CC2)nc2ccnn2c1Nc1ccc(Oc2ccc(C)cc2)cc1 [Compound 57] | < 100 µM | 102 to 104 °C | +++ |  |
| CCc1c(N[C@H]2CC[C@H](N)CC2)nc2ccnn2c1Nc1ccc(OC)c(OC)c1 [Compound 58] | < 100 µM | 181 to 185 °C | ++ |  |
| CCc1c(N[C@H]2CC[C@H](N)CC2)nc2ccnn2c1Nc1cccc(I)c1 [Compound 60] | < 100 µM | 199 to 201 °C | +++ |  |
| CCOc1cccc(Nc2c(CC)c(N[C@H]3CC[C@H](N)CC3)nc3ccnn23)c1 [Compound 61] | < 100 µM | 150 to 152 °C | +++ |  |
| CSc1ccc(Nc2c(C)c(N[C@H]3CC[C@H](N)CC3)nc3ccnn23)cc1 [Compound 65] | < 100 µM | 185 to 187 °C | +++ |  |
| Cc1c(N[C@H]2CC[C@H](N)CC2)nc2ccnn2c1Nc1cccc(Br)c1 [Compound 77] | < 100 µM | 215 to 216 °C | +++ |  |
| CCOc1ccc(Nc2c(C)c(N[C@H]3CC[C@H](N)CC3)nc3c(CO)cnn23)cc1 [Compound 92] | < 100 µM | 101 to 104 °C |  |  |
| Cc1c(N[C@H]2CC[C@H](N)CC2)nc2ccnn2c1Nc1ccc(C(=O)NC2CCCC2)cc1 [Compound 463] | < 100 µM |  | +++ |  |
| Cc1c(N[C@H]2CC[C@H](N)CC2)nc2ccnn2c1Nc1ccc(C(=O)NCc2ccco2)cc1 [Compound 511] | < 100 µM |  | +++ |  |
| CCOc1ccc(Nc2c(C)c(N[C@@H]3CN[C@@H](C(=O)O)C3)nc3ccnn23)cc1 [Compound 772] | < 100 µM |  | ++ |  |
| CC(=O)c1ccc(-c2ccc(Nc3c(C)c(N[C@H]4CCCNC4)nc4ccnn34)cc2)s1 [Compound 773] |  |  | +++ | < 100 µM |
| Cc1c(N[C@H]2CC[C@H](N)CC2)nc2ccnn2c1Nc1ccc(C(=O)Nc2ccccc2)cc1 [Compound 776] | < 100 µM |  | +++ |  |
| Cc1c(N[C@H]2CC[C@H](N)CC2)nc2ccnn2c1Nc1ccc(C(=O)c2ccccc2)cc1 [Compound 778] | < 100 µM |  | +++ |  |
| Cc1c(N[C@H]2CC[C@H](N)CC2)nc2ccnn2c1Nc1ccc(OC(F)(F)F)c(Cl)c1 [Compound 785] | < 100 µM |  | +++ |  |
